Test results as given in patent publication US20260364184A1, “COMPOUND BASED ON OXOISOINDOLINYL-SUBSTITUTED TETRAHYDROPYRIMIDINE-DIONE AND USE THEREOF” (GLUETACS THERAPEUTICS (SHANGHAI) CO., LTD., priority 2023, published 2026).

Key:
Type in all cases: cell-based
[1] = tested on: Human Acute T Lymphoblastic Leukemia Cells (Molt-4); test: Inhibition of Molt-4 cell proliferation (CellTiter luminescent viability); conditions: Homo sapiens, MOLT-4, 96 h, Table IA2, IRAK4 inhibitor-based, 96 hours; for inhibition at 0.01 µM: Molt-4, 10 nM, read-out: Inhibition Rate at 10 nM (%); for inhibition at 0.5 µM: Molt-4, 500 nM, read-out: Inhibition Rate at 500 nM (%)
Procedure: (§1) The tumor cells used herein were cultured in a cell culture medium listed in table 3 at 37 °C in an incubator with 5% CO2. Prior to experimentation, all cell lines used were correctly identified by STR profiling, and tested negative for mycoplasma contamination using a mycoplasma detection kit through routine screenings.
(§2) The IC50 values of the compounds of the present disclosure (including the compounds in Table 1, Table 2, and Examples 1-468) were determined using the CellTiter-Meiluncell Luminescent Cell Viability Assay Kit from Dalian Meilun Biotech Co., Ltd. The detailed procedure is as follows: Tumor cells were seeded in 96-well cell culture plates at the densities specified in Table 4. On the following day, the test compounds of the present disclosure were subjected to serial dilution. The dilution can be performed according to one of the following two methods: • (1) The first dilution method: The test compounds of the present disclosure (including the compounds in Table 1, Table 2, and Examples 1-468) were subjected to 5-fold serial dilutions starting from a highest concentration of 2000 μM, resulting in a total of 9 concentrations from high to low (2000, 400, 80, 16, 3.2, 0.64, 0.128, 0.0256, 0.00512 μM). Subsequently, 0.5 μL of the test compound dilution was transferred into the 96-well plate containing the cells, with each well containing 100 μL of cell culture medium. […] Into the 96-well plate, the diluted test compounds and corresponding detection reagents were added, resulting in final test compound concentrations of 500 nM and 10 nM, respectively. The experimental procedure is described below using the diluted 2 μM test compound as an example.
(§3) 0.5 μL of the aforementioned diluted compound of the present disclosure (including the compounds in Table 1, Table 2, and Examples 1-468) was added to the seeded cells in 100 μL of medium, yielding a final test compound concentration of 10 nM. After the cells were treated with the compounds of the present disclosure for a specified period, the cell viability assay reagent was added to the culture medium according to the kit's instructions to determine cell viability. […] All controls were treated using the same procedure as the compounds of the present disclosure. The growth inhibition curves for the compounds of the present disclosure were plotted using Prism GraphPad software, and the IC50 values were calculated therefrom.

[2] = biological target: T1, IRAK4 (Homo sapiens, UniProt Q9NWZ3); test: Western blot degradation of IRAK4; conditions: hPBMC Cell; 24 hours
T1 construct: expression of target proteins in cells; endogenous in cells
T1 sequence (Q9NWZ3 1-460): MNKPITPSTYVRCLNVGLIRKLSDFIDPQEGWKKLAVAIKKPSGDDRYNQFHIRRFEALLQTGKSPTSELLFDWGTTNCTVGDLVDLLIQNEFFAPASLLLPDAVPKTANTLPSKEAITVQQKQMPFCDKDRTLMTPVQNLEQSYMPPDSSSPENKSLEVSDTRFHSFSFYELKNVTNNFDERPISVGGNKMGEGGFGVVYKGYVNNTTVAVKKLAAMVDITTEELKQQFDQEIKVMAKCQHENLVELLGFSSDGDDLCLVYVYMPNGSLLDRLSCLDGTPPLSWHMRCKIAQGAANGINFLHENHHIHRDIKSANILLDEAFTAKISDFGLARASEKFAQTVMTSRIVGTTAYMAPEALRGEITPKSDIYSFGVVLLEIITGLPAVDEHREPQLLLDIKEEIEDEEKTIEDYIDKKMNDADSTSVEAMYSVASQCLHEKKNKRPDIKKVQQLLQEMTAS
In short: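 Cells treated with compound, lysed, and target protein detected by Western blot (SDS-PAGE, nitrocellulose transfer). DC50 taken as the concentration giving band grayscale half that of DMSO control, estimated by concentration-response fitting; remaining protein (%) from target band normalised to internal control band; degradation (%) = 1 − remaining.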

[3] = tested on: Human myeloid monocytic leukemia cell line (MV-4-11); test: Inhibition of MV-4-11 cell proliferation (CellTiter luminescent viability); conditions: Homo sapiens, MV4-11, Table IA3, IRAK4 inhibitor-based, 96 hours; for inhibition at 0.01 µM: MV-4-11, 10 nM, read-out: Inhibition Rate at 10 nM (%); for inhibition at 0.5 µM: MV-4-11, 500 nM, read-out: Inhibition Rate at 500 nM (%)
Procedure: as §1, §2, §3

[4] = tested on: Human Multiple myeloma cell line (MM.1S); test: Inhibition of MM.1S cell proliferation (CellTiter luminescent viability); conditions: Table IA1, IRAK4 inhibitor-based, 96 hours, read-out: Inhibitory activity (IC50, nM) on tumor cell proliferation, MM.1S
Procedure: as §1, §2, §3

Compound	Degradation of substrate protein IRAK4 (substrate protein remaining %) [2]	IC50 [4] [nM]	inhibition at 0.01 µM [1] [%]	inhibition at 0.5 µM [1] [%]	inhibition at 0.01 µM [3] [%]	inhibition at 0.5 µM [3] [%]
COc1cc2nn([C@H]3CC[C@H](CN4CCN(c5cc6c(cc5F)C(=O)N(N5CCC(=O)NC5=O)C6=O)CC4)CC3)cc2cc1NC(=O)c1cccc(C(F)(F)F)n1 [GT-08651, N-(2-((1r,4r)-4-((4-(2-(2,4-dioxotetrahydropyrimidin-1(2H)-yl)-6-fluoro-1,3-dioxoisoindolin-5-yl)piperazin-1-yl)methyl)cyclohexyl)-6-methoxy-2H-indazol-5-yl)-6-(trifluoromethyl) picolinamide]	A (0%≤substrate protein remaining %≤80%)		15 to 20	10 to 15		
COc1cc2nn([C@H]3CC[C@H](CN4CCN(c5cc6c(cc5F)C(=O)N(N5CCC(=O)NC5=O)C6=O)CC4)CC3)cc2cc1NC(=O)c1cccc(C(F)(F)F)c1 [GT-08664, N-(2-((1r,4r)-4-((4-(2-(2,4-dioxotetrahydropyrimidin-1(2H)-yl)-6-fluoro-1,3-dioxoisoindolin-5-yl)piperazin-1-yl)methyl)cyclohexyl)-6-methoxy-2H-indazol-5-yl)-3-(trifluoromethyl)benzamide]	A (0%≤substrate protein remaining %≤80%)		20 to 40	15 to 20		
O=C1CCN(N2C(=O)c3ccc(N4C[C@H]5C[C@@H]4CN5C[C@H]4CC[C@H](n5cc(NC(=O)c6cnn7ccc(N8C[C@H]9C[C@@H]8CO9)nc67)c(C(F)F)n5)CC4)cc3C2=O)C(=O)N1 [GT-05238, 5-((1R,4R)-2-oxa-5-azabicyclo[2.2.1]heptan-5-yl)-N-(3-(difluoromethyl)-1-((1R,4R)-4-(((1R,4R)-5-(2-(2,4-dioxotetrahydropyrimidin-1(2H)-yl)-1,3-dioxoisoindolin-5-yl)-2,5-diazabicyclo[2.2.1]heptan-2-yl)methyl)cyclohexyl)-1H-pyrazol-4-yl)pyrazolo[1,5-a]pyrimidine-3-carboxamide]	A (0%≤substrate protein remaining %≤80%)				20 to 36	60 to 80
COc1cc2nn([C@H]3CC[C@H](CN4CC5CCC(C4)N5c4ccc5c(c4)C(=O)N(N4CCC(=O)NC4=O)C5=O)CC3)cc2cc1NC(=O)c1cccc(C(F)(F)F)n1 [GT-08652, N-(2-((1r,4r)-4-((8-(2-(2,4-dioxotetrahydropyrimidin-1(2H)-yl)-1,3-dioxoisoindolin-5-yl)-3,8-diazabicyclo[3.2.1]octan-3-yl)methyl)cyclohexyl)-6-methoxy-2H-indazol-5-yl)-6-(trifluoromethyl) picolinamide]	A (0%≤substrate protein remaining %≤80%)		15 to 20	15 to 20		
COc1cc2nn([C@H]3CC[C@H](CN4C[C@H]5C[C@@H]4CN5c4ccc5c(c4)C(=O)N(N4CCC(=O)NC4=O)C5=O)CC3)cc2cc1NC(=O)c1cccc(C(F)(F)F)n1 [GT-08650, N-(2-((1R,4r)-4-(((1R,4R)-5-(2-(2,4-dioxotetrahydropyrimidin-1(2H)-yl)-1,3-dioxoisoindolin-5-yl)-2,5-diazabicyclo[2.2.1]heptan-2-yl)methyl)cyclohexyl)-6-methoxy-2H-indazol-5-yl)-6-(trifluoromethyl) picolinamide]	A (0%≤substrate protein remaining %≤80%)		20 to 40	15 to 20		
COc1cc2nn([C@H]3CC[C@H](CN4CCN(c5ccc6c(c5)C(=O)N(N5CCC(=O)NC5=O)C6=O)CC4)CC3)cc2cc1NC(=O)c1cccc(C(F)(F)F)n1 [GT-08647, N-(2-((1r,4r)-4-((4-(2-(2,4-dioxotetrahydropyrimidin-1(2H)-yl)-1,3-dioxoisoindolin-5-yl)piperazin-1-yl)methyl)cyclohexyl)-6-methoxy-2H-indazol-5-yl)-6-(trifluoromethyl) picolinamide]	A (0%≤substrate protein remaining %≤80%)					
COc1cc2nn([C@H]3CC[C@H](CN4CCN(c5cc(F)c6c(c5)C(=O)N(N5CCC(=O)NC5=O)C6=O)CC4)CC3)cc2cc1NC(=O)c1cccc(C(F)(F)F)c1 [GT-08670, N-(2-((1r,4r)-4-((4-(2-(2,4-dioxotetrahydropyrimidin-1(2H)-yl)-7-fluoro-1,3-dioxoisoindolin-5-yl)piperazin-1-yl)methyl)cyclohexyl)-6-methoxy-2H-indazol-5-yl)-3-(trifluoromethyl)benzamide]	A (0%≤substrate protein remaining %≤80%)					

Continued, in another order:

Degradation of substrate protein IRAK4 (substrate protein remaining %) [2]	IC50 [4] [nM]	Compound	inhibition at 0.01 µM [1] [%]	inhibition at 0.5 µM [1] [%]	inhibition at 0.01 µM [3] [%]	inhibition at 0.5 µM [3] [%]
A (0%≤substrate protein remaining %≤80%)		O=C1CCN(N2C(=O)c3cccc(N4CCC(CN5CCN(c6ccc7c(c6)nc(NC(=O)c6cccc(C(F)(F)F)c6)n7[C@H]6CC[C@@H](CO)CC6)CC5)CC4)c3C2=O)C(=O)N1 [GT-05325, N-(5-(4-((1-(2-(2,4-dioxotetrahydropyrimidin-1(2H)-yl)-1,3-dioxoisoindolin-4-yl)piperidin-4-yl)methyl)piperazin-1-yl)-1-((1s,4s)-4-(hydroxymethyl)cyclohexyl)-1H-benzo[d]imidazol-2-yl)-3-(trifluoromethyl)benzamide]			-15 to -10	60 to 80
A (0%≤substrate protein remaining %≤80%)	500 to 1000	O=C1CCN(N2C(=O)c3ccc(N4CCC(CN5CCC(n6cc(NC(=O)c7coc(-c8ccnc(NCC9CC9)c8)n7)c(C(F)F)n6)CC5)CC4)cc3C2=O)C(=O)N1 [GT-04953, 2-(2-((cyclopropylmethyl)amino)pyridin-4-yl)-N-(3-(difluoromethyl)-1-(1-((1-(2-(2,4-dioxotetrahydropyrimidin-1(2H)-yl)-1,3-dioxoisoindolin-5-yl)piperidin-4-yl)methyl)piperidin-4-yl)-1H-pyrazol-4-yl) oxazole-4-carboxamide]				
A (0%≤substrate protein remaining %≤80%)		COc1cc2nn([C@H]3CC[C@H](CN4C[C@@H]5C[C@H]4CN5c4ccc5c(c4)C(=O)N(N4CCC(=O)NC4=O)C5=O)CC3)cc2cc1NC(=O)c1cccc(C(F)(F)F)n1 [GT-08648, N-(2-((1S,4r)-4-(((1S,4S)-5-(2-(2,4-dioxotetrahydropyrimidin-1(2H)-yl)-1,3-dioxoisoindolin-5-yl)-2,5-diazabicyclo[2.2.1]heptan-2-yl)methyl)cyclohexyl)-6-methoxy-2H-indazol-5-yl)-6-(trifluoromethyl) picolinamide]	15 to 20	15 to 20		
A (0%≤substrate protein remaining %≤80%)		COc1cc2nn(C3CCN(CC4CCN(c5cccc6c5C(=O)N(N5CCC(=O)NC5=O)C6=O)CC4)CC3)cc2cc1NC(=O)c1cccc(C(F)(F)F)n1 [GT-05817, N-(2-(1-((1-(2-(2,4-dioxotetrahydropyrimidin-1(2H)-yl)-1,3-dioxoisoindolin-4-yl)piperidin-4-yl)methyl)piperidin-4-yl)-6-methoxy-2H-indazol-5-yl)-6-(trifluoromethyl) picolinamide]			-5 to 0	50 to 60
